Assay results from patent publication US20130096067A1, “DROSOPHILA TUMOR STEM CELL MODEL AND USES THEREOF” (priority 2011, published 2013).
Like-named read-outs stand apart in the source and are kept apart here. Square brackets hold non-standard residues; d marks the D form. Peptide text beside a SMILES is read from it. * marks the point of attachment. Nle = CCCC[C@H](N)C(=O)O; CH2Cl = ClC*

System: Raf-1^gof intestinal tumors
Conditions: for Log2 (fold) (luciferase activity, log2 of the fold difference relative to DMSO controls) / Fold (luciferase activity, fold difference relative to DMSO controls): screen of 480 ICCB compounds in vials, compounds fed to flies with one-day old Raf-1^gof tumors, esg-Gal4 luciferase
[1] = ICCB compounds fed in vials to flies with one-day old Raf-1^gof tumors, assessed three days later
[2] = ICCB compounds fed in vials to flies with one-day old Raf-1^gof tumors, assessed three days later, averaged from multiple wells
[3] = assessed three days later, averaged from multiple wells
Also: test concentration or dose not given here.

Row | SMILES | Log2 (fold) of luciferase activity relative to DMSO controls [1] | Fold (luciferase activity relative to DMSO controls) [2] | Log2 (fold) (luciferase activity, log2 of the fold difference relative to DMSO controls) (assessed three days later) | Fold (luciferase activity, fold difference relative to DMSO controls) [3] | further results
1 | CC1=C(/C=C/C(C)=C/C=C/C(C)=C\C(=O)O)C(C)(C)CCC1 [13-CIS RETINOIC ACID] | 0.074 | 1.053 fold | – | – | –
2 | CCCCCC(=O)/C=C/C=C\CCCCCCCC(=O)O [13-KETOOCTADECADIENOIC ACID] | 0.320 | 1.248 fold | – | – | –
3 | CCCCCC1OC1C/C=C\C/C=C\C/C=C\CCCC(=O)O (stereo not drawn) [14,15-EPOXYEICOSATRIENOIC ACID] | 0.322 | 1.250 fold | – | – | –
4 | CCCCC[C@H](O)/C=C/C=C\C/C=C\C/C=C\CCCC(=O)O [15(S)-HETE] | – | – | −0.309 | 0.807 | –
5 | CCCCC[C@@H](/C=C/C=C\C/C=C\C/C=C\CCCC(=O)O)OO [15(S)-HPETE] | 0.361 | 1.285 fold | – | – | –
6 | CCCCCC(=O)/C=C/C=C\C/C=C\C/C=C\CCCC(=O)O [15-KETOEICOSATETRAENOIC ACID] | – | – | −0.266 | 0.832 | –
7 | CCCCC/C=C/C=C1/C(=O)C=C[C@@H]1C/C=C\CCCC(=O)O [15d-Prostaglandin J2] | 0.294 | 1.226 fold | – | – | –
8 | CCCCC(C)(C)C(O)C=CC1C(O)CC(=O)C1CC=CCCCC(=O)O (stereo not drawn) [16,16-DIMETHYL-PROSTAGLANDIN E2] | −0.013 | 0.991 fold | – | – | –
9 | C=CCNC1=C2C[C@@H](C)C[C@H](OC)[C@H](O)[C@@H](C)/C=C(\C)[C@H](OC(N)=O)[C@@H](OC)/C=C\C=C(/C)C(=O)NC(=CC1=O)C2=O [17-Allylamino-geldanamycin] | – | – | −0.433 | 0.741 | –
10 | C#CCCCCCCCCCCCCCCCC(=O)O [17-OCTADECYNOIC ACID] | – | – | −0.358 | 0.780 | –
11 | O=C(O)CCC/C=C\C[C@H]1C(=O)C[C@@H](O)[C@@H]1/C=C/[C@@H](O)CCc1ccccc1 [17-PHENYL-TRINOR-PGE2] | – | – | −0.253 | 0.839 | –
12 | CC(C)[C@@H](O)CC[C@@H](C)[C@H]1CC[C@H]2[C@@H]3CC=C4C[C@@H](O)CC[C@]4(C)[C@H]3CC[C@]12C [24(S)-hydroxycholesterol] | – | – | −0.244 | 0.844 | –
13 | C=C1CCC(O)C/C1=C\C=C1\CCCC2(C)C1CCC2C(C)CCC(O)C(C)(C)O (stereo not drawn) [24,25-DIHYDROXYVITAMIN D3] | – | – | −0.363 | 0.777 | –
14 | C=C1CC[C@H](O)C/C1=C/C=C1\CCC[C@]2(C)[C@@H]([C@H](C)CCCC(C)(C)O)CC[C@@H]12 [25-HYDROXYVITAMIN D3] | −0.113 | 0.925 fold | – | – | –
15 | CCCCC/C=C\C/C=C\C/C=C\C/C=C\CCCC(=O)N[C@H](C)CO [(R)-METHANANDAMIDE] | 0.068 | 1.049 fold | – | – | –
16 | CNc1ccc2oc(C[C@H]3O[C@@]4(CC[C@H]3C)O[C@H]([C@H](C)C(=O)c3ccc[nH]3)[C@H](C)C[C@H]4C)nc2c1C(=O)O [A-23187] | 0.176 | 1.130 fold | – | – | –
17 | CC1=C(C)C(=O)C(CCCCC#CCCCC#CCO)=C(C)C1=O [AA-861] | – | – | −0.444 | 0.735 | –
18 | CCN1C[C@]2(COC)[C@H](O)C[C@H](OC)[C@@]34[C@@H]5C[C@@]6(O)[C@H](OC(=O)c7ccccc7)[C@@H]5[C@@](OC(C)=O)([C@@H]([C@H](OC)[C@H]23)[C@@H]14)[C@@H](O)[C@@H]6OC [ACONITINE] | – | – | −0.278 | 0.825 | –
19 | CCCCC/C=C\C/C=C\C/C=C\C/C=C\CCCCCC(=O)O [ADRENIC ACID (22:4, n-6)] | – | – | −0.364 | 0.777 | –
20 | N#C/C(=C\c1ccc(O)c(O)c1)C(N)=S [AG213 (Tyrphostin 47)] | – | – | −0.625 | 0.648 | –
21 | COc1cc2ncnc(Nc3cccc(Cl)c3)c2cc1OC [AG1478] | – | – | −0.655 | 0.635 | –
22 | N#CC(=Cc1ccc2[nH]ccc2c1)C(N)=C(C#N)C#N [AG-370] | – | – | −0.559 | 0.679 | –
23 | N#C/C(=C/c1ccc(O)c(O)c1)C(=O)NCc1ccccc1 [AG-490] | – | – | −0.272 | 0.828 | –

Row | SMILES | Log2 (fold) of luciferase activity relative to DMSO controls [1] | Fold (luciferase activity relative to DMSO controls) [2] | Log2 (fold) (luciferase activity, log2 of the fold difference relative to DMSO controls) (assessed three days later) | Fold (luciferase activity, fold difference relative to DMSO controls) [3] | further results
24 | CC(C)(C)c1cc(/C=C(\C#N)C(N)=S)cc(C(C)(C)C)c1O [AG-879] | 0.902 | 1.869 fold | – | – | –
25 | CC(=O)N[C@@H](CSC/C=C(\C)CCC=C(C)C)C(=O)O [AGC] | – | – | −0.508 | 0.703 | –
26 | CC(=O)N[C@@H](CSC/C=C(\C)CC/C=C(\C)CC/C=C(\C)CCC=C(C)C)C(=O)O [AGGC] | – | – | – | – | Fold (luciferase activity relative to DMSO controls) (in vivo): 1.001 fold; Log2 (fold) of luciferase activity relative to DMSO controls (in vivo): 0.001
27 | CN(CCc1ccc(Cl)c(Cl)c1)CC(O)COc1ccc(NS(C)(=O)=O)cc1 (stereo not drawn) [AM 92016] | – | – | −0.341 | 0.789 | –
28 | Cc1c(C(=O)NN2CCCCC2)nn(-c2ccc(Cl)cc2Cl)c1-c1ccc(I)cc1 [AM-251] | 0.065 | 1.046 fold | – | – | –
29 | CC1(C)CCC(C)(C)c2cc(C(=O)Nc3ccc(C(=O)O)cc3)ccc21 [AM-580] | – | – | −0.311 | 0.806 | –
30 | NC12CC3CC(CC(C3)C1)C2 [AMANTIDINE] | – | – | −0.252 | 0.840 | –
31 | N=C(N)NC(=O)c1nc(Cl)c(N)nc1N [AMILORIDE] | −0.041 | 0.972 fold | – | – | –
32 | CCCCc1oc2ccccc2c1C(=O)c1cc(I)c(OCCN(CC)CC)c(I)c1 [AMIODARONE] | 0.102 | 1.074 fold | – | – | –
33 | CCCCC/C=C\C/C=C\CCCCCCCC(=O)NCCO [ANANDAMIDE (18:2, n-6)] | −0.101 | 0.932 fold | – | – | –
34 | CCCCC/C=C\C/C=C\C/C=C\CCCCCCC(=O)NCCO [ANANDAMIDE (20:3, n-6)] | – | – | −0.653 | 0.636 | –
35 | CCCCC/C=C\C/C=C\C/C=C\C/C=C\CCCC(=O)NCCO [ANANDAMIDE (20:4, n-6)] | 0.054 | 1.038 fold | – | – | –
36 | CCCCC/C=C\C/C=C\C/C=C\C/C=C\CCCCCC(=O)NCCO [ANANDAMIDE (22:4, n-6)] | 0.007 | 1.005 fold | – | – | –
37 | CCCCC/C=C\C/C=C\C/C=C\C/C=C\CCCC(N)=O [ARACHIDONAMIDE] | −0.069 | 0.954 fold | – | – | –
38 | CCCCC/C=C\C/C=C\C/C=C\C/C=C\CCCC(=O)O [ARACHIDONIC ACID (20:4, n-6)] | −0.045 | 0.969 fold | – | – | –
39 | CCCCC/C=C\C/C=C\C/C=C\C/C=C\CCCC(=O)O[C@H](COCCCCCCCCCCCCCCCC)COP(=O)([O-])OCC[N+](C)(C)C [ARACHIDONOYL-PAF] | – | – | −0.439 | 0.738 | –
40 | CCCC[C@@H](C=O)NC(=O)[C@H](CC(C)C)NC(=O)[C@H](CC(C)C)NC(C)=O [Ac-Leu-Leu-Nle-CHO] (Ac-Leu-Leu-[Nle]-aldehyde) | – | – | −0.431 | 0.742 | –
41 | C[C@H](N)C(=O)N[C@@H](C)C(=O)N[C@@H](Cc1ccccc1)C(=O)CCl [Ala-Ala-Phe-CMK] (H-Ala-Ala-Phe-CH2Cl) | – | – | −0.738 | 0.599 | –
42 | O=C(O)CN1C(=O)c2cccc3cccc(c23)C1=O [Alrestatin] | – | – | −0.320 | 0.801 | –
43 | CCCCC/C=C\C/C=C\C/C=C\C/C=C\CCCC(=O)NCc1ccc(O)c(OC)c1 [Arvanil] | – | – | −0.482 | 0.716 | –
44 | CC(C)(c1ccc(OCC2CO2)cc1)c1ccc(OCC2CO2)cc1 (stereo not drawn) [BADGE] | 0.345 | 1.270 fold | – | – | –
45 | CC(=O)OCOC(=O)CN(CC(=O)OCOC(C)=O)c1ccccc1OCCOc1ccccc1N(CC(=O)OCOC(C)=O)CC(=O)OCOC(C)=O [BAPTA-AM] | – | – | −0.242 | 0.846 | –
